According to patent publication US6699825B2, “Acidic hard-surface antimicrobial cleaner” (S.C. Johnson & Son, Inc., priority 2001, dated 2004):

Assays:
Klebsiella pneumoniae = test: EPA Non-Food Contact Sanitizer Test DIS/TSS-10, glass slide, 5% fetal bovine serum; format: cell-based; conditions: K. pneumoniae; dilute aqueous acidic solution; 1-minute contact
Protocol: (§1) Low-residue hard surface cleaner formulations of the present invention were evaluated for sanitizing efficacy under the United States Environmental Protection Agency's Non-Food Contact Sanitizer Test, DIS/TSS-10 (Jan. 7, 1982). As noted in specific examples, a 30 second or 1 minute contact time using a glass slide test surface was used. As these formulas are to be used as one-step antimicrobial cleaners, fetal bovine serum was added to the innoculum at a concentration of 5.0 percent by weight to simulate an organic soil load such as one would expect to find on a typical non-food contact surface prior to cleaning.
(§2) Efficacy of the test solutions was evaluated versus Staphylococcus aureus (S. aureus), Klebsiella pneumoniae (K. pneumoniae), and Salmonella choleraesius (S. choleraesius). As a control, parallel tests were conducted using a 0.01 percent solution of Triton X-100 (isooctylphenoxyl-polyethoxyethanol with 9-10 moles of oxyethylene) in an identical manner as the test solutions. The results for the test solutions were compared to the control and are reported as “Log Kill” of the test organism versus the control counts in Table 2. A “Log Kill” of 5 means that 99.999 percent of the organism has been killed.

Staphylococcus aureus = test: as above; format: cell-based; conditions: S. aureus; dilute aqueous acidic solution; 1-minute contact
Protocol: as §1, §2

[1] = cited from earlier work

SMILES: OCc1ccccc1 [BA, Benzyl Alcohol]
- antimicrobial synergy with low levels of organocarboxylic acids (Klebsiella pneumoniae): enhanced biocidal efficacy
- antimicrobial synergy with low levels of organocarboxylic acids (Staphylococcus aureus): enhanced biocidal efficacy
- Solubility in water at 20-25° C. [1]: 3.8%

SMILES: CCOCCOCCO [Carbitol, Diethylene Glycol Ethyl Ether]
- antimicrobial synergy with low levels of organocarboxylic acids (Klebsiella pneumoniae): no significant antimicrobial synergy
- antimicrobial synergy with low levels of organocarboxylic acids (Staphylococcus aureus): no significant antimicrobial synergy
- miscibility in water [1]: completely miscible
- Solubility in water at 20-25° C. [1]: Infinite

SMILES: CCCCCCOCCOCCO [DEGHE, Diethylene Glycol n-Hexyl Ether]
- antimicrobial synergy with low levels of organocarboxylic acids (Klebsiella pneumoniae): enhanced biocidal efficacy
- antimicrobial synergy with low levels of organocarboxylic acids (Staphylococcus aureus): enhanced biocidal efficacy

SMILES: COC(C)COC(C)CO (centres unmarked) [DPM, Dipropylene Glycol Methyl Ether]
- antimicrobial synergy with low levels of organocarboxylic acids (Klebsiella pneumoniae): no significant antimicrobial synergy
- antimicrobial synergy with low levels of organocarboxylic acids (Staphylococcus aureus): no significant antimicrobial synergy
- miscibility in water [1]: completely miscible
- Solubility in water at 20-25° C. [1]: Infinite

SMILES: CCCCCOCCO [EGPE, Ethylene Glycol n-Pentyl Ether]
- antimicrobial synergy with low levels of organocarboxylic acids (Klebsiella pneumoniae): enhanced biocidal efficacy
- antimicrobial synergy with low levels of organocarboxylic acids (Staphylococcus aureus): enhanced biocidal efficacy
- Solubility in water at 20-25° C. [1]: 3.4%

SMILES: OCCOc1ccccc1 [Eph, Ethylene Glycol Phenyl Ether]
- antimicrobial synergy with low levels of organocarboxylic acids (Klebsiella pneumoniae): enhanced biocidal efficacy
- antimicrobial synergy with low levels of organocarboxylic acids (Staphylococcus aureus): enhanced biocidal efficacy
- Solubility in water at 20-25° C. [1]: 2.3%

SMILES: CC(C)O [IPA, Iso-propanol]
- antimicrobial synergy with low levels of organocarboxylic acids (Klebsiella pneumoniae): no significant antimicrobial synergy
- antimicrobial synergy with low levels of organocarboxylic acids (Staphylococcus aureus): no significant antimicrobial synergy
- miscibility in water [1]: completely miscible
- Solubility in water at 20-25° C. [1]: Infinite
